{"source": "patent US8211916B2", "about": "“N- and O-substituted 4-[2-(diphenylmethoxy)-ethyl]-1-[(phenyl)methyl]piperidine analogs and methods of treating CNS disorders therewith” (Wayne State University, priority 2000, dated 2012)", "key": {"rat SERT": {"target": "T1, rat SERT (Rattus norvegicus, UniProt P31652)", "T1 construct": "from tissue; host or cells: rat striatum (membranes)", "T1 sequence (P31652 whole entry)": "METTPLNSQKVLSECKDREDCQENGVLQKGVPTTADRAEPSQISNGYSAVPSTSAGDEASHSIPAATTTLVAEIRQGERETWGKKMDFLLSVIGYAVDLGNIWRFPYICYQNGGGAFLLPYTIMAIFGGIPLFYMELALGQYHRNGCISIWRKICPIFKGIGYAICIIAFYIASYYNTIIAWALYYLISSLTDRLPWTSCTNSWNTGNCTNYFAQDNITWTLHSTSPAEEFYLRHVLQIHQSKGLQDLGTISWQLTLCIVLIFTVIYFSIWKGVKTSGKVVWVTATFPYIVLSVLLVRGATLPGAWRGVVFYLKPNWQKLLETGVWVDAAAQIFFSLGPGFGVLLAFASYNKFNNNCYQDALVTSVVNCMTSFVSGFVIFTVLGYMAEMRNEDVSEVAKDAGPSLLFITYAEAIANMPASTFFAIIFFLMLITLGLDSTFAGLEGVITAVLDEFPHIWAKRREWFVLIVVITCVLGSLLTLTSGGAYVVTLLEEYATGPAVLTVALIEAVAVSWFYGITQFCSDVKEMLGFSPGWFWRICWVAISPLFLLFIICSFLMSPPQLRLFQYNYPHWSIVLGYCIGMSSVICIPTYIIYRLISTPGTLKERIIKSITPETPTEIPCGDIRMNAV", "assay": "Rat SERT binding, [3H]citalopram, striatal membranes"}, "[1]": {"target": "T2, Norepinephrine (NET) Transporter (Rattus norvegicus, UniProt Q63380)", "T2 construct": "and norepinephrine Transporters in Rat Striatum; from tissue", "T2 sequence (Q63380 1-617)": "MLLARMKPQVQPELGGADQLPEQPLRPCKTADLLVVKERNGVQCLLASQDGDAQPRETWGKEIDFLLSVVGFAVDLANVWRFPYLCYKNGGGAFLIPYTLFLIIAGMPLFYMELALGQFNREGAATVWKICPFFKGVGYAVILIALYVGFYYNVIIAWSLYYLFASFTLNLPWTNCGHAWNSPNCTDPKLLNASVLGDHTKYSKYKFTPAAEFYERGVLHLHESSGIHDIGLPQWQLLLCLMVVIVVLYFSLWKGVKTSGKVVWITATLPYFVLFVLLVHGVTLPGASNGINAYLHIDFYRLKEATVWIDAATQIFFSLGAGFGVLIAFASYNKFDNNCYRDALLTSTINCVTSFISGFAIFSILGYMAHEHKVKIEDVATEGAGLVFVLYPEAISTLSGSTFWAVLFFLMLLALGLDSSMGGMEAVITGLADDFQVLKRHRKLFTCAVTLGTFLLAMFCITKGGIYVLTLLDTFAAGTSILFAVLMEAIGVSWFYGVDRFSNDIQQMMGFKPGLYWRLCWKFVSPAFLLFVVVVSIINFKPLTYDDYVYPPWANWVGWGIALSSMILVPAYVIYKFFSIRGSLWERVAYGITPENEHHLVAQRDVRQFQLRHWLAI", "assay": "NET binding, [3H]nisoxetine"}, "[2]": {"target": "T3, dopamine transporter (DAT) (Rattus norvegicus, UniProt P23977)", "T3 sequence (P23977 whole entry)": "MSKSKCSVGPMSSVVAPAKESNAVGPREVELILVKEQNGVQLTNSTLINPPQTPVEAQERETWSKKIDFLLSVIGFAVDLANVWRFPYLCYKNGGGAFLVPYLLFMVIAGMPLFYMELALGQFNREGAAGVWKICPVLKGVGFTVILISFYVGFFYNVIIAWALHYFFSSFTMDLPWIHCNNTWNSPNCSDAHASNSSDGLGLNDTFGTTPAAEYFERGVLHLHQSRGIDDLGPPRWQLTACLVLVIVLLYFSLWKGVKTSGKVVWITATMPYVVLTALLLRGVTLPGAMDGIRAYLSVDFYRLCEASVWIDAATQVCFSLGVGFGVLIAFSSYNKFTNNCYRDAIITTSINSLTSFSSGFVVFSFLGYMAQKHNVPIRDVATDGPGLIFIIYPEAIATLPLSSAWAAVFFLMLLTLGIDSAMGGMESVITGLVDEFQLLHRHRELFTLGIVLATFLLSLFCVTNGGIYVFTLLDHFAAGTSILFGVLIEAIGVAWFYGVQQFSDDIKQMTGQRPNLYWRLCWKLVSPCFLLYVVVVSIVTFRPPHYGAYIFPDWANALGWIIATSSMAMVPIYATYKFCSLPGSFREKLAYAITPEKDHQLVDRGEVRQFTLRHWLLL", "conditions": "for [3H]DA/DAT Binding: Table 4, uptake/binding ratio"}, "[3]": {"target": "T3, dopamine transporter (DAT)", "assay": "biochemical"}, "rat DAT": {"target": "rat DAT (Rattus norvegicus, UniProt P23977)", "sequence (P23977 whole entry)": "as above", "assay": "Rat DAT binding, [3H]Win 35,428, striatal membranes", "conditions": "for NET/DAT / SERT/DAT: Table 4, binding selectivity"}, "DAT": {"target": "T4, DAT (Rattus norvegicus, UniProt P23977)", "T4 construct": "from tissue; host or cells: rat striatum", "T4 sequence (P23977 whole entry)": "as above", "assay": "Uptake of [3H]DA by DAT, rat striatum", "format": "biochemical", "conditions": "[3H]DA uptake, rat striatum; read-out: Ki (DAT), inhibition of DA uptake", "excerpt": "(§1) Transporter assays. The affinity of test compounds in binding to rat DAT and in inhibiting monoamine uptake was monitored as described by us previously. […] Rat cerebral cortex was used for assessing uptake of [^3H]serotonin by SERT and hippocampus for uptake of [^3H]NE by NET. […] At lease five triplicate concentrations of each test compound were studied, spaced evenly around the IC50 value. The latter was estimated by nonlinear computer curve-fitting procedures and converted to Ki with the Cheng-Prusoff equation."}, "NET": {"target": "T5, NET (Rattus norvegicus, UniProt Q63380)", "T5 construct": "from tissue; host or cells: rat hippocampus", "T5 sequence (Q63380 1-617)": "as the sequence (Q63380 1-617) above", "assay": "Uptake of [3H]NE by NET, rat hippocampus", "format": "biochemical", "conditions": "[3H]NE uptake, read-out: Ki (NET), inhibition of NE uptake", "excerpt": "as §1"}, "[4]": {"assay": "Stability of free base on storage", "format": "physicochemical", "conditions": "room temperature", "experimental": "To a solution of oxalyl chloride ([…], […]) in CH2Cl2 (3 mL) cooled to −78° C. was added dropwise 108 mg dimethylsulfoxide (1.38 mmol, 3 equiv). The mixture was stirred for 10 min and a solution of 236 mg racemic trans-3-hydroxy-4-[2-(diphenylmethoxy)ethyl]-1-[(4-fluorophenyl)methyl]piperidine (0.46 mmol) in CH2Cl2 (1 mL) was added dropwise. […] […]; H, 5.92; N, 2.76."}, "[5]": {"conditions": "Table 3, read-out: NET, IC50, nM [3H]nisoxetine"}}, "note": "Read-outs that look alike come from different tables or passages of the source."}
{"smiles": "Fc1ccc(CNC2CCC(C(c3ccccc3)c3ccccc3)NC2)cc1", "note": "(racemic) [(±)-7a, 2-diphenylmethyl-5-(4-fluorobenzylamino)piperidine]", "values": [{"measurement": "IC50", "setting": "rat SERT", "result": 2810, "unit": "nM"}, {"measurement": "IC50", "setting": "[1]; [5]", "result": 1350, "unit": "nM"}, {"measurement": "[3H]DA/DAT Binding", "setting": "[2]", "result": 0.03}, {"measurement": "IC50", "setting": "[3]", "result": "28.9 ± 2.5", "unit": "nM"}, {"measurement": "IC50", "setting": "rat DAT", "result": "30 ± 0.5", "unit": "nM"}, {"measurement": "SERT/DAT selectivity ratio", "setting": "rat DAT", "result": 93.7}, {"measurement": "NET/DAT", "setting": "rat DAT", "result": 44.9}, {"measurement": "SERT/DAT", "setting": "rat DAT", "result": 93.7}]}
{"smiles": "O[C@H](CN[C@H]1CC[C@@H](C(c2ccccc2)c2ccccc2)NC1)c1ccc(F)cc1", "note": "[Example 4b, (S)-2-[(3S,6S)-6-benzhydrylpiperidin-3-ylamino)-1-(4-fluorophenyl)ethanol]", "values": [{"measurement": "Ki", "setting": "DAT", "result": 152, "unit": "nM"}, {"measurement": "Ki", "setting": "NET", "result": 306, "unit": "nM"}]}
{"smiles": "O[C@@H](CN[C@H]1CC[C@@H](C(c2ccccc2)c2ccccc2)NC1)c1ccc(F)cc1", "note": "[Example 4a, (R)-2-[(3S,6S)-6-benzhydrylpiperidin-3-ylamino)-1-(4-fluorophenyl)ethanol]", "values": [{"measurement": "Ki", "setting": "DAT", "result": 236, "unit": "nM"}, {"measurement": "Ki", "setting": "NET", "result": 1440, "unit": "nM"}]}
{"smiles": "Fc1ccc(CN2CCC(CNOC(c3ccccc3)c3ccccc3)CC2)cc1", "note": "[Example 7, 4-[((2-Diphenylmethoxy)amino)methyl]-1-[(4-fluorophenyl)methyl]piperidine]", "values": [{"measurement": "IC50", "setting": "rat SERT; Table 1, read-out: SERT, IC50", "result": "626 ± 33", "unit": "nM"}, {"measurement": "IC50", "setting": "[1]", "result": "691 ± 68", "unit": "nM"}, {"measurement": "IC50", "setting": "[3]", "result": "16.6 ± 2.8", "unit": "nM"}, {"measurement": "IC50", "setting": "rat DAT; read-out: DAT, IC50, Table 1", "result": "34.4 ± 4.2", "unit": "nM"}]}
{"smiles": "Fc1ccc(CN2CCC(CNCC(c3ccccc3)c3ccccc3)CC2)cc1", "note": "[Example 11, 4-[[2-(Diphenyl)ethyl]aminomethyl]-1-[(4-fluorophenyl)methyl]piperidine]", "values": [{"measurement": "IC50", "setting": "rat SERT; Table 1, read-out: SERT, IC50", "result": "137 ± 45.6", "unit": "nM"}, {"measurement": "affinity for the SERT", "setting": "rat SERT; in words", "result": "moderate affinity"}, {"measurement": "IC50", "setting": "[1]; Table 1, read-out: NET, IC50", "result": 1110, "unit": "nM"}, {"measurement": "[3H]DA/DAT Binding", "setting": "[2]", "result": 2.5}, {"measurement": "IC50", "setting": "[2]; read-out: [3H]DA Inhibition, IC50, Table 2, rat synaptosome tissue", "result": "49.6 ± 7.2", "unit": "nM"}, {"measurement": "NET/DAT", "setting": "rat DAT", "result": 5.6}, {"measurement": "SERT/DAT", "setting": "rat DAT", "result": 6.9}, {"measurement": "affinity for the DAT", "setting": "rat DAT; in words", "result": "strong affinity"}, {"measurement": "IC50", "setting": "rat DAT; read-out: DAT, IC50, Table 1", "result": "19.7 ± 1.4", "unit": "nM"}]}
{"smiles": "O=C1CN(Cc2ccc(F)cc2)CCC1CCOC(c1ccccc1)c1ccccc1", "note": "(racemic) [Example 18, racemic 3-Keto-4-[2-(diphenylmethoxy)ethyl]-1-[(4-fluorophenyl)methyl]piperidine]", "values": [{"measurement": "IC50", "setting": "rat SERT", "result": 7750, "unit": "nM"}, {"measurement": "IC50", "setting": "[1]; Table 5, rat striatum, read-out: NET, IC50, nM [3H]nisoxetine", "result": 6300, "unit": "nM"}, {"measurement": "stability of the free base", "setting": "[4]", "result": "decomposes at room temperature"}, {"measurement": "IC50", "setting": "rat DAT", "result": "99 ± 18", "unit": "nM"}]}
{"smiles": "Fc1ccc(CN[C@H]2CC[C@H](C(c3ccccc3)c3ccccc3)NC2)cc1", "note": "(racemic) [(±)-7b, trans-2-diphenylmethyl-5-(4-fluorobenzylamino)piperidine]", "values": [{"measurement": "IC50", "setting": "rat SERT", "result": 1330, "unit": "nM"}, {"measurement": "IC50", "setting": "[1]; [5]", "result": 4470, "unit": "nM"}, {"measurement": "[3H]DA/DAT Binding", "setting": "[2]", "result": 0.5}, {"measurement": "IC50", "setting": "[3]", "result": "106 ± 10", "unit": "nM"}, {"measurement": "IC50", "setting": "rat DAT", "result": "212 ± 20", "unit": "nM"}, {"measurement": "SERT/DAT selectivity ratio", "setting": "rat DAT", "result": 6.28}, {"measurement": "NET/DAT", "setting": "rat DAT", "result": 21}, {"measurement": "SERT/DAT", "setting": "rat DAT", "result": 6.28}]}
